# Measurements: patent publication US10173991B2, “Sulfone amide linked benzothiazole inhibitors of endothelial lipase” (BRISTOL-MYERS SQUIBB COMPANY, priority 2014, dated 2019)
# Molecular target: Endothelial lipase (EL) (Homo sapiens (Human), UniProt Q9Y5X9)
# Test: Endothelial lipase (EL) enzymatic assay with fluorescent substrate A10070 in DMPG vesicles
# Type: biochemical
# Details: not given
# Procedure, shortened: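 EL from conditioned medium of HT-1080 cells engineered to overexpress endogenous EL; HL partially purified from conditioned medium of HL-overexpressing COS cells. Enzyme preincubated with compound 30 min at 37° C in 50 mM HEPES pH 8.0, 50 mM NaCl, 1 mM CaCl2; DMPG vesicles carrying FRET substrate (0.11 mole fraction) then added.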
# Endothelial lipase (EL), sequence (Q9Y5X9 21-500): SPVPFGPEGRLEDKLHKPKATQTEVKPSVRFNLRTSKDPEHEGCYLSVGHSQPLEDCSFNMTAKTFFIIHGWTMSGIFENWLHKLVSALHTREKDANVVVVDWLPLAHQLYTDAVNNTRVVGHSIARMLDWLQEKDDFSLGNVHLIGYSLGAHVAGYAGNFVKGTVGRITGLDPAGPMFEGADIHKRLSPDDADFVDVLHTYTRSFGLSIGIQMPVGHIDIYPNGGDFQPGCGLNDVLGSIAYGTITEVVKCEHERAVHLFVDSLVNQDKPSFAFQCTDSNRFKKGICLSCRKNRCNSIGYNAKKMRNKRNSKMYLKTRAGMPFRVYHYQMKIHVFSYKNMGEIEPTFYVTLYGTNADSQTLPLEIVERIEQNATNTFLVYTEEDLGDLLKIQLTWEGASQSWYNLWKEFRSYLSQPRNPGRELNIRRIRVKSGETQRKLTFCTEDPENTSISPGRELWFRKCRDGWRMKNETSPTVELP
row,Compound,IC50
1,COCCS(=O)(=O)C(C(=O)NCC(=O)NC1CC1)c1nc2cc(F)c(-c3cnc(OC)c(N)c3)cc2s1 (stereo not shown) [Example 140],12 nM
2,"COCCS(=O)(=O)C(C(=O)NCC(=O)NCCOC(C)C)c1nc2cc(-c3ccnn3C)c(F)cc2s1 (stereo not shown) [Example 357, 2-[6-fluoro-5-(1-methyl-1H-pyrazol-5-yl)-1,3-benzothiazol-2-yl]-2-(2-methoxyethane-sulfonyl)-N-({[2-(propan-2-yloxy)ethyl]carbamoyl}methyl)acetamide]",49 nM
3,"COCCS(=O)(=O)C(C(=O)NCC(=O)NC1CC1)c1nc2cc(-c3ccc(C(=O)N4CCOCC4)cc3)ccc2s1 (stereo not shown) [Example 337, N-[(cyclopropyl-carbamoyl)methyl]-2-(2-methoxyethane-sulfonyl)-2-{5-[4-(morpholine-4-arbonyl)phenyl]-1,3-benzothiazol-2-yl}acetamide]",38 nM
4,"COCCS(=O)(=O)C(C(=O)NCC(=O)NC1CC1)c1nc2cc(F)c(-c3cccc(F)n3)cc2s1 (stereo not shown) [Example 181, N-[(cyclopropyl-carbamoyl)methyl]-2-[5-fluoro-6-(6-fluoropyridin-2-yl)-1,3-benzothiazol-2-yl]-2-(2-methoxyethane-sulfonyl) acetamide]",143 nM
5,"COCCS(=O)(=O)C(C(=O)NCC(=O)NC1CC1)c1nc2cc(C(=O)OC(C)(C)C)c(F)cc2s1 (stereo not shown) [Example 428, tert-butyl 2-({[(cyclopropyl-carbamoyl)methyl]carbamoyl}(2-methoxyethane-sulfonyl)methyl)-6-fluoro-1,3-benzothiazole-5-carboxylate]",12 nM
6,"COCCS(=O)(=O)C(C(=O)NCC(=O)NC1CC1)c1nc2cc(C(=O)OC(C)(C)C)ccc2s1 (stereo not shown) [Example 427, tert-butyl 2-({[(cyclopropyl-carbamoyl)methyl]carbamoyl}(2-methoxyethane-sulfonyl)methyl)-1,3-benzothiazole-5-carboxylate]",66 nM
7,"COCCS(=O)(=O)C(C(=O)NCC(=O)NC1CC1)c1nc2ccc(-c3ccc(Cl)cn3)cc2s1 (stereo not shown) [Example 303, 2-[6-(5-chloropyridin-2-yl)-1,3-benzothiazol-2-yl]-N-[(cyclopropyl-carbamoyl)methyl]-2-(2-methoxyethane-sulfonyl)acetamide]",247 nM
8,"CN(C)S(=O)(=O)C(C(=O)NCC(=O)NC1CC1)c1nc2c(F)cc(-c3ccc(F)nc3)cc2s1 (stereo not shown) [Example 489, N-[(cyclopropyl-carbamoyl)methyl]-2-(dimethyl-sulfamoyl)-2-[4-fluoro-6-(6-fluoropyridin-3-yl)-1,3-benzothiazol-2-yl]acetamide]",165 nM
9,"COCCS(=O)(=O)C(C(=O)NCC(=O)NC1(c2ncon2)CC1)c1nc2ccc(-c3ccc(F)nc3)cc2s1 (stereo not shown) [Example 391, 2-[6-(6-fluoropyridin-3-yl)-1,3-benzothiazol-2-yl]-2-(2-methoxyethane-sulfonyl)-N-({[1-(1,2,4-oxadiazol-3-yl)cyclopropyl]carbamoyl}methyl) acetamide]",68 nM
10,"COCCS(=O)(=O)C(C(=O)NCC(=O)NC1CC1)c1nc2cc(-c3ccnc(OC)c3)ccc2s1 (stereo not shown) [Example 74, N-[(cyclopropyl-carbamoyl)methyl]-2-(2-methoxyethane-sulfonyl)-2-[5-(2-methoxypyridin-4-yl)-1,3-benzothiazol-2-yl]acetamide]",31 nM

# Other lines, results leading:
row,IC50,Compound
1,1 nM,"COCCS(=O)(=O)C(C(=O)NCC(=O)NC1CC1)c1nc2ccc(-c3ccc(-c4ncco4)cc3)cc2s1 (stereo not shown) [Example 93, N-[(cyclopropyl-carbamoyl)methyl]-2-(2-methoxyethane-sulfonyl)-2-{6[4-(1,3-oxazol-2-yl)phenyl]-1,3-benzothiazol-2-yl} acetamide]"
2,12 nM,"COc1cc(-c2cc3nc(C(C(=O)NCC(=O)NC4CC4)S(C)(=O)=O)sc3cc2F)ccn1 (stereo not shown) [Example 364, N-[(cyclopropyl-carbamoyl)methyl]-2-[6-fluoro-5-(2-methoxypyridin-4-yl)-1,3-benzothiazol-2-yl]-2-methanesulfonyl-acetamide]"
3,4 nM,"COCCOC(=O)Nc1ccc(-c2cc3sc(C(C(=O)NCC(=O)NC4CC4)S(=O)(=O)CCOC)nc3cc2F)cc1 (stereo not shown) [Example 535, 2-methoxyethyl N-{4-[2-({[(cyclopropyl-carbamoyl)methyl]carbamoyl}(2-methoxyethane-sulfonyl)methyl)-5-fluoro-1,3-benzothiazol-6-yl]phenyl} carbamate]"
4,10 nM,"COCCS(=O)(=O)C(C(=O)NCC(=O)NC1CC1)c1nc2cc(-c3cnc(C4CC4)nc3)c(F)cc2s1 (stereo not shown) [Example 348, N-[(cyclopropyl-carbamoyl)methyl]-2-[5-(2-cyclopropyl-pyrimidin-5-yl)-6-fluoro-1,3-benzothiazol-2-yl]-2-(2-methoxyethane-sulfonyl)acetamide]"
5,12 nM,COCCS(=O)(=O)C(C(=O)NCC(=O)NC1CC1)c1nc2cc(-c3ccc(C(F)(F)F)nc3)ccc2s1 (stereo not shown) [Example 66]
6,2 nM,"CN(C)S(=O)(=O)C(C(=O)NCC(=O)NC1CC1)c1nc2c(F)cc(-c3cccc(NC(=O)OCc4ccccc4)c3)cc2s1 (stereo not shown) [Example 502, benzyl N-{3-[2-({[(cyclopropyl-carbamoyl)methyl]carbamoyl} (dimethyl-sulfamoyl)methyl)-4-fluoro-1,3-benzothiazol-6-yl]phenyl} carbamate]"
7,10 nM,"COCCS(=O)(=O)C(C(=O)NCC(=O)NC1CC1)c1nc2cc(-c3ccc(CNC(C)=O)cc3)ccc2s1 (stereo not shown) [Example 332, N-[(cyclopropyl-carbamoyl)methyl]-2-{5-[4-(acetamidomethyl)phenyl]-1,3-benzothiazol-2-yl}-2-(2-methoxyethane-sulfonyl)acetamide]"
8,2 nM,"COCCS(=O)(=O)C(C(=O)NCC(=O)NC1CC1)c1nc2cc(Cl)c(-c3ccc(NC(C)=O)cc3)cc2s1 (stereo not shown) [Example 96, 2-[5-chloro-6-(4-acetamidophenyl)-1,3-benzothiazol-2-yl]-N-[(cyclopropyl-carbamoyl)methyl]-2-(2-methoxyethane-sulfonyl) acetamide]"
9,2 nM,"COCCOC(=O)Nc1ccc(-c2cc3sc(C(C(=O)NCC(=O)NC4CC4)S(=O)(=O)CCC(F)(F)F)nc3cc2F)cc1 (stereo not shown) [Example 534, 2-methoxyethyl N-{4-[2-({[(cyclopropyl-carbamoyl)methyl]carbamoyl}(3,3,3-trifluoropropane-sulfonyl)methyl)-5-fluoro-1,3-benzothiazol-6-yl]phenyl} carbamate]"
10,6 nM,"COC(=O)Nc1ccc(-c2cc3nc(C(C(=O)NCC(=O)NC4CC4)S(=O)(=O)C(C)C)sc3cc2F)cc1 (stereo not shown) [Example 269, methyl N-{4-[2-({[(cyclopropyl-carbamoyl)methyl]carbamoyl} (propane-2-sulfonyl)methyl)-6-fluoro-1,3-benzothiazol-5-yl]phenyl}carbamate]"
11,3 nM,"COCCS(=O)(=O)C(C(=O)NCC(=O)NC1CC1)c1nc2cc(F)c(-c3ccc(-c4ccno4)cc3)cc2s1 (stereo not shown) [Example 145, N-[(cyclopropyl-carbamoyl)methyl]-2-{5-fluoro-6-[4-(1,2-oxazol-5-yl)phenyl]-1,3-benzothiazol-2-yl}-2-(2-methoxyethane-sulfonyl) acetamide]"

# Same assay, conditions: EL from conditioned media of HT-1080 cells; 30 min preincubation at 37° C.
row,IC50,Compound
1,3 nM,"COCCS(=O)(=O)C(C(=O)NCC(=O)NC1CC1)c1nc2ccc(-c3ccc(N(C)C(=O)OC(C)(C)C)cc3)cc2s1 (stereo not shown) [Example 60, tert-Butyl N-{4-[2-({[(cyclopropylcarbamoyl)methyl]carbamoyl}(2-methoxyethanesulfonyl)methyl)-1,3-benzothiazol-6-yl]phenyl}-N-methylcarbamate]"
